Reference: EPA's ToxRefDB 2

Experiments:
rabbit [1] = details: Prenatal developmental toxicity study, chinchilla, Oral, Gavage/Intubation, dose end: 18 GD
rat [2] = details: Prenatal developmental toxicity study, sprague dawley, Oral, Gavage/Intubation, dose end: 15 GD
rat [3] = details: Subchronic oral toxicity in rodents, other, Water, dose end: 90 day, group: systemic
mouse [4] = details: Carcinogenicity, b6c3f1, Oral, Water, dose end: 104 week, group: systemic
rat [5] = details: Subchronic oral toxicity in rodents, sprague dawley, Water, dose end: 13 week, group: systemic
rabbit [6] = details: Prenatal developmental toxicity study, dutch, Oral, Gavage/Intubation, dose end: 18 GD
mouse [7] = details: Subchronic oral toxicity in rodents, b6c3f1, Water, dose end: 13 week, group: systemic
rat [8] = details: Combined chronic toxicity/carcinogenicity; sprague dawley; Oral; Water; dose end: 24 month; group: systemic; systemic / in life observation / mortality / mortality + systemic / pathology gross / kidney / calculus + systemic / pathology gross / …
mouse [9] = details: Carcinogenicity, cd1, Oral, Water, dose end: 24 month, group: systemic
rat [10] = details: Prenatal developmental toxicity study, sprague dawley, Oral, Gavage/Intubation, dose end: 17 GD, group: maternal
rat [11] = details: Sub-acute repeat dose toxicity; sprague dawley; Oral; Gavage/Intubation; dose end: 4 week; group: systemic; systemic / clinical chemistry / alanine aminotransferase (alt/sgpt) / alanine aminotransferase (alt/sgpt) + systemic / clinical chemistry / …
primate = details: Subchronic oral toxicity in nonrodent, Gavage/Intubation, dose end: 91 day, group: systemic, systemic / in life observation / clinical signs / ataxia + systemic / in life observation / clinical signs / convulsions + systemic / in …
dog = details: Sub-acute repeat dose toxicity, beagle, Oral, Gavage/Intubation, dose end: 17 day, group: systemic
rat [12] = details: Combined chronic toxicity/carcinogenicity, sprague dawley, Oral, Water, dose end: 24 month, group: systemic
rabbit [13] = details: Prenatal developmental toxicity study, new zealand white, Oral, Gavage/Intubation, dose end: 19 GD
rat [14] = details: Subchronic dermal toxicity, sprague dawley, Topical, dose end: 13 week, group: systemic, systemic / in life observation / clinical signs / desquamation + systemic / in life observation / clinical signs / erythema + systemic / in …
rat [15] = details: Carcinogenicity; fischer; Oral; Feed; dose end: 78 week; group: systemic; systemic / in life observation / body weight / body weight + systemic / pathology microscopic / bone marrow / atrophy
rat [16] = details: Prenatal developmental toxicity study, sprague dawley, Oral, Gavage/Intubation, dose end: 17 GD
mouse [17] = details: Carcinogenicity; b6c3f1; Oral; Feed; dose end: 78 week; group: systemic; systemic / in life observation / body weight / body weight
[18] = group: developmental, developmental / developmental malformation / bone / unossified + systemic / in life observation / body weight / fetal weight
[19] = group: maternal, systemic / in life observation / body weight / body weight gain + systemic / in life observation / food consumption / food consumption
[20] = group: maternal, systemic / in life observation / body weight / body weight gain + systemic / in life observation / food consumption / food consumption + …
[21] = group: developmental, developmental / developmental malformation / bone / incomplete ossification
[22] = group: maternal, systemic / in life observation / body weight / body weight + systemic / in life observation / body weight / body weight gain + systemic / in…
[23] = systemic / in life observation / body weight / body weight + systemic / in life observation / clinical signs / fur (altered appearance) + …
[24] = systemic / in life observation / clinical signs / distended abdomens + systemic / urinalysis / sodium / sodium
[25] = systemic / clinical chemistry / protein / protein
[26] = systemic / pathology gross / urinary bladder / calculus + systemic / pathology microscopic / urinary bladder / hyperplasia
[27] = group: developmental, developmental / developmental malformation / general / crown-rump length + systemic / in life observation / body weight / fetal weight
[28] = group: maternal, systemic / in life observation / body weight / body weight
[29] = systemic / pathology gross / urinary bladder / calculus
[30] = systemic / pathology gross / urinary bladder / calculus + systemic / pathology microscopic / urinary bladder / congestion
[31] = systemic / hematology / erythrocyte (rbc) count differential / erythrocyte (rbc) + systemic / hematology / hematocrit (hct) / hematocrit (…
[32] = reproductive / reproductive performance / postimplantation loss / postimplantation loss + reproductive / reproductive performance / …
[33] = systemic / clinical chemistry / alanine aminotransferase (alt/sgpt) / alanine aminotransferase (alt/sgpt) + systemic / clinical chemistry / …
[34] = systemic / pathology microscopic / stomach / hyperkeratosis + systemic / pathology microscopic / stomach / hyperplasia + systemic / in life …
[35] = group: developmental, developmental / developmental malformation / general / [other]
[36] = group: developmental, developmental / developmental malformation / bone / fused + developmental / developmental malformation / brain / dilated cerebral ventricle
[37] = group: developmental, developmental / developmental malformation / bone / fused + developmental / developmental malformation / brain / dilated cerebral ventricle…
[38] = group: maternal, reproductive / reproductive performance / resorptions / resorptions + reproductive / offspring survival early / dead fetuses / dead fetuses…

CCCCCCCCCCCCCC[P+](CCCC)(CCCC)CCCC.[Cl-] [Tributyltetradecylphosphonium chloride]
LEL (rabbit [1]; [18]): 11.2 mg/kg/day
LOAEL (rabbit [1]; [18]): 11.2 mg/kg/day
NEL (rabbit [1]; [18]): 3.75 mg/kg/day
NOAEL (rabbit [1]; [18]): 3.75 mg/kg/day
LEL (rabbit [1]; [19]): 11.2 mg/kg/day
LOAEL (rabbit [1]; [19]): 11.2 mg/kg/day
NEL (rabbit [1]; [20]): 3.75 mg/kg/day
NOAEL (rabbit [1]; [20]): 3.75 mg/kg/day
LEL (rat [2]; [21]): 30 mg/kg/day
LOAEL (rat [2]; [21]): 30 mg/kg/day
NEL (rat [2]; [21]): 10 mg/kg/day
NOAEL (rat [2]; [21]): 10 mg/kg/day
LOAEL (rat [2]; [22]): 120 mg/kg/day
NEL (rat [2]; [22]): 20 mg/kg/day
NOAEL (rat [2]; [22]): 60 mg/kg/day
LEL (rat [2]; group: maternal, systemic / in life observation / food consumption / food consumption + systemic / in life observation / clinical signs / respiration (…): 60 mg/kg/day
LOAEL (rat [3]; [23]): 27.2 mg/kg/day
NEL (rat [3]; [23]): 2.56 mg/kg/day
NOAEL (rat [3]; [23]): 8.66 mg/kg/day
LEL (rat [3]; systemic / organ weight / kidney / relative to body weight): 8.66 mg/kg/day

O=c1[n-]c(=O)[nH]c(=O)[nH]1.[Na+] [Sodium cyanurate]
LEL (mouse [4]; systemic / in life observation / body weight / body weight gain): 100 mg/kg/day
NEL (mouse [4]; systemic / in life observation / body weight / body weight gain + systemic / in life observation / clinical signs / distended abdomens + …): 25.9 mg/kg/day
LOAEL (mouse [4]; [24]): > 1520 mg/kg/day
NOAEL (mouse [4]; [24]): ≥ 1520 mg/kg/day
LEL (rat [5]; [25]): 132 mg/kg/day
NEL (rat [5]; [25]): < 132 mg/kg/day
LOAEL (rat [5]; [26]): > 672 mg/kg/day
NOAEL (rat [5]; [26]): ≥ 672 mg/kg/day
LEL (rabbit [6]; [27]): 500 mg/kg/day
LOAEL (rabbit [6]; [27]): 500 mg/kg/day
NEL (rabbit [6]; [27]): 200 mg/kg/day
NOAEL (rabbit [6]; [27]): 200 mg/kg/day
LEL (rabbit [6]; [28]): 200 mg/kg/day
LOAEL (rabbit [6]; [28]): 200 mg/kg/day
NEL (rabbit [6]; [28]): 50 mg/kg/day
NOAEL (rabbit [6]; [28]): 50 mg/kg/day
LEL (mouse [7]; [29]): 252 mg/kg/day
NEL (mouse [7]; [29]): < 252 mg/kg/day
LOAEL (mouse [7]; [30]): 1990 mg/kg/day
NOAEL (mouse [7]; [30]): 522 mg/kg/day
LEL (rat [8]): 371 mg/kg/day
LOAEL (rat [8]): 371 mg/kg/day
NEL (rat [8]): 154 mg/kg/day
NOAEL (rat [8]): 154 mg/kg/day

CN(C)N [1,1-Dimethylhydrazine]
LEL (mouse [9]; [31]): 1.41 mg/kg/day
NEL (mouse [9]; [31]): 0.269 mg/kg/day
LOAEL (mouse [9]; systemic / pathology microscopic / liver / hyperplasia + systemic / pathology microscopic / liver / pigmentation): 1.91 mg/kg/day
NOAEL (mouse [9]; systemic / pathology microscopic / liver / hyperplasia + systemic / pathology microscopic / liver / pigmentation + systemic / in life …): 0.97 mg/kg/day

O=C(O)c1ccccc1-n1cc(C(=O)O)c(=O)c2cc(Nc3c(F)cc(F)cc3Cl)c(Cl)cc21 [AVE9423]
LOAEL (rat [10]; [32]): > 1000 mg/kg/day
NEL (rat [10]; [32]): 40 mg/kg/day
NOAEL (rat [10]; [32]): ≥ 1000 mg/kg/day
LEL (rat [10]; reproductive / reproductive performance / postimplantation loss / postimplantation loss + systemic / in life observation / body weight / …): 200 mg/kg/day
LEL (rat [11]): 200 mg/kg/day
LOAEL (rat [11]): 200 mg/kg/day
NEL (rat [11]): 20 mg/kg/day
NOAEL (rat [11]): 20 mg/kg/day

Cl.NCC1(Cc2noc(=O)[nH]2)CCCCC1
LEL (primate): 250 mg/kg/day
LOAEL (primate): > 1500 mg/kg/day
NEL (primate): 50 mg/kg/day
NOAEL (primate): ≥ 1500 mg/kg/day

CC(C)(O)c1cnn2c(-c3ccc(F)c(-c4c(F)cccc4C#N)c3)cnc2n1
LOAEL (dog; [33]): > 15 mg/kg/day
NEL (dog; [33]): 0.5 mg/kg/day
NOAEL (dog; [33]): ≥ 15 mg/kg/day
LEL (dog; systemic / clinical chemistry / albumin / albumin): 2.5 mg/kg/day

Cn1sc(Cl)cc1=O [5-Chloro-2-methyl-3(2H)-isothiazolone]
LOAEL (rat [12]; systemic / pathology microscopic / stomach / hyperkeratosis + systemic / pathology microscopic / stomach / hyperplasia): 6.6 mg/kg/day
NEL (rat [12]; [34]): 2 mg/kg/day
NOAEL (rat [12]; [34]): 2 mg/kg/day
LEL (rat [12]; systemic / pathology microscopic / stomach / hyperkeratosis + systemic / pathology microscopic / stomach / hyperplasia + systemic / …): 6.6 mg/kg/day
LEL (rabbit [13]; [35]): 8 mg/kg/day
LOAEL (rabbit [13]; [35]): 8 mg/kg/day
NEL (rabbit [13]; [35]): 2 mg/kg/day
NOAEL (rabbit [13]; [35]): 2 mg/kg/day
LEL (rabbit [13]; [22]): 8 mg/kg/day
LOAEL (rabbit [13]; [22]): 8 mg/kg/day
NEL (rabbit [13]; [22]): 2 mg/kg/day
NOAEL (rabbit [13]; [22]): 2 mg/kg/day
LEL (rat [14]): 0.75 mg/kg/day
LOAEL (rat [14]): 0.75 mg/kg/day
NEL (rat [14]): < 0.75 mg/kg/day
NOAEL (rat [14]): < 0.75 mg/kg/day

CCc1nc(N)nc(N)c1-c1ccc(Cl)cc1 [Pyrimethamine]
LEL (rat [15]): 10 mg/kg/day
LOAEL (rat [15]): > 20 mg/kg/day
NEL (rat [15]): < 10 mg/kg/day
NOAEL (rat [15]): ≥ 20 mg/kg/day
LEL (rat [16]; [36]): 1.2 mg/kg/day
NEL (rat [16]; [36]): < 1.2 mg/kg/day
LOAEL (rat [16]; [37]): > 2.7 mg/kg/day
NOAEL (rat [16]; [37]): ≥ 2.7 mg/kg/day
NEL (rat [16]; group: maternal, reproductive / reproductive performance / resorptions / resorptions): 1.2 mg/kg/day
LEL (rat [16]; [38]): 2.7 mg/kg/day
LOAEL (rat [16]; [38]): > 2.7 mg/kg/day
NOAEL (rat [16]; [38]): ≥ 2.7 mg/kg/day
LEL (mouse [17]): 75 mg/kg/day
LOAEL (mouse [17]): > 150 mg/kg/day
NEL (mouse [17]): < 75 mg/kg/day
NOAEL (mouse [17]): ≥ 150 mg/kg/day
